Non-standard residues stand in square brackets, D forms with d. Residues, ends and D or L forms follow the SMILES beside them. Nva = CCC[C@H](N)C(=O)O
Columns and labels:
[1] = Solubility of the peptide in acetate buffer formulation; type: physicochemical
Experimental: Vehicle was prepared by dissolving propylene glycol (1.77 g) and Tyloxapol (0.1 g) in 97 mL of 35 mM of Acetic Acid/Sodium Acetate buffer, pH 4.3-4.5 by mixing until uniform. The peptide D-Asn-Ile-Pro-Nva-Leu-Tyr-D-Ser-Phe-Ala-D-Ser-NH2 (API, also referred to as ALY688 or ALY-688 herein) (1.0 g) was added to the vehicle and mixed until dissolved. The pH was adjusted with small amounts of Acetic Acid or Sodium Hydroxide. The formulation was sterile-filtered.
A concentration of 12 mg/g Acetate buffer gave a clear solution at a pH 4.5.

[2] = system: rabbit atropine-induced dry eye model; experiment: Corneal epithelial fluorescein staining in atropine-induced dry eye; type: in vivo, NZW rabbits
Experimental: (§1) The purpose of this study was to evaluate the efficacy of a topical ALY688 ophthalmic formulation according Formula 22 in Example 2 in a rabbit atropine-induced dry eye model.
(§2) Clinical evaluations of corneal fluorescein staining, tear break-up time and tear volume were determined at five timepoints during the 14 day dosing period. Pre-dose ophthalmic anterior segment slit-lamp exams with corneal fluorescein staining, Tear Volume (TV) and Tear Break-Up Time (TBUT) assessments were performed. Animals were assigned to treatment groups such that the average baseline TV and TBUT values were approximately equal across groups.
(§3) Study Groups were assigned as follows: • Group 1: Atropine+ALY688 0.4% ophthalmic TID, (n=6) • Group 2: Atropine+Vehicle ophthalmic TID, (n=6) • Group 3: Atropine only (n=4)
(§4) Test article dosing began on Day −1.
(§5) Atropine eye drops (TID) began on Day 0.
(§6) Dry eye evaluations were performed on Days 1, 3, 7, 10, and 13.
Corneal epithelial staining: Corneal staining was assessed immediately after the TBUT measurement, after rinsing excess fluorescein. Fluorescein uptake was graded according to the NEI/Industry Grading System, in 5 separate areas of the cornea using a 0-3 grading scale maximum score: 15). Total staining score was calculated for each eye.

[3] = system: rabbit atropine-induced dry eye model; experiment: Atropine-induced dry eye in rabbits, overall conclusion; type: in vivo, NZW rabbits
Experimental: as §1, §2, §3, §4, §5, §6
The evaluator was masked as to treatment group for all assessments.

[4] = system: rabbit atropine-induced dry eye model; experiment: Slit-lamp examination of the anterior segment (McDonald-Shattuck) in atropine-induced dry eye study; type: in vivo, NZW rabbits; details: ALY688 0.4% ophthalmic TID (Formula 22); baseline and Day 13
Experimental: as §1, §2, §3
Examinations: Slit-lamp examinations of the anterior segment were performed at baseline and on Day 13 according to the McDonald-Shattuck Scoring System including conjunctival congestion, swelling, and discharge, corneal opacity, pannus, anterior chamber cells and flare, iris, light reflex, and lens.

[5] = system: rabbit atropine-induced dry eye model; experiment: Tear Break-Up Time (TBUT) in atropine-induced dry eye; type: in vivo, NZW rabbits
Experimental: as §1, §2, §3, §4, §5, §6
Tear Breakup Time (TBUT): TBUT was determined after instillation of 6 μL of 2% sodium fluorescein in sterile saline onto the lower eyelid. After manually blinking the eye, the time for black spots or streaks to appear on the cornea under cobalt filter illumination was recorded. The procedure was conducted three times consecutively, and the average of three readings was used.

[6] = system: rabbit atropine-induced dry eye model; experiment: Tear Volume (TV, Schirmer Tear Test strips) in atropine-induced dry eye; type: in vivo, NZW rabbits
Experimental: as §1, §2, §3, §4, §5, §6
Tear Volume (TV): Tear volume was measured using Schirmer Tear Test strips (Intervet, Inc., Summit, NJ), by placing the strip into the lower fornix for 60 seconds and recording the mm distance of the wetted area.

[7] = integrated AUC response vs baseline, p<0.005, FIG. 4

Structure (SMILES): CCC[C@H](NC(=O)[C@@H]1CCCN1C(=O)[C@@H](NC(=O)[C@H](N)CC(N)=O)[C@@H](C)CC)C(=O)N[C@@H](CC(C)C)C(=O)N[C@@H](Cc1ccc(O)cc1)C(=O)N[C@H](CO)C(=O)N[C@@H](Cc1ccccc1)C(=O)N[C@@H](C)C(=O)N[C@H](CO)C(N)=O [ALY688, D-Asn-Ile-Pro-Nva-Leu-Tyr-D-Ser-Phe-Ala-D-Ser-NH2] (H-[dN]IP[Nva]LY[dS]FA[dS]-NH2; N-terminus assumed)
- concentration that gave a clear solution ([1]; Acetate buffer, pH 4.5): 12 mg/g
- solubility of the peptide ([1]; formulation of Example 1): significantly increased
- corneal fluorescein staining vs vehicle control group ([2]; ALY688 0.4% TID, all evaluation timepoints, statistically significant on Days 1, 3, 10 (p<0.05)): lower
- corneal staining, integrated analysis at all post-baseline timepoints vs vehicle [2, 7]: highly statistically significant improvement
- reduction of dry eye signs ([3]; ALY688 ophthalmic solution 0.4% TID, 14 day dosing): highly effective at reducing dry eye signs
- onset of effects ([3]; after initiation of ALY688 treatment): as early as two days after initiation
- anterior segment slit-lamp exam findings related to test article [4]: no abnormal findings
- TBUT decrease ([5]; ALY688 0.4% TID, Day 1 of atropine treatment (vehicle group 50%)): 32%
- TBUT level by Day 7 ([5]; ALY688 0.4% TID, Day 7): returned to baseline TBUT levels
- TBUT compared to vehicle ([5]; ALY688 0.4% TID, Days 7, 10 and 13 (p<0,01)): statistically significant higher
- TBUT level through the remainder of the study ([5]; ALY688 0.4% TID, after Day 7 to Day 13): maintained normal TBUT levels
- TBUT compared to atropine-only group ([5]; ALY688 0.4% TID, all post-baseline days, 2-sample two-tailed t-test): statistically significantly higher
- TBUT, integrated analysis at all post-baseline timepoints vs vehicle [5, 7]: highly statistically significant improvement
- Tear Volume vs vehicle group on Day 13 ([6]; ALY688 0.4% TID, Day 13 (p=0.01), borderline (p=0.08) on Days 1 and 7): statistically significantly higher
- Tear Volume vs vehicle control group ([6]; ALY688 0.4% TID, all timepoints): consistently higher
- Tear Volume, integrated analysis at all post-baseline timepoints vs vehicle [6, 7]: highly statistically significant improvement

— US12201668B2, “Adiponectin peptidomimetics formulations” (ALLYSTA PHARMACEUTICALS, INC., priority 2018, dated 2025)
